The text below walks through data of PubChem BioAssay (NCI).

Structures are written as SMILES.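 Briefly, cells in 96-well plates were exposed to five compound concentrations for 48 h, and endpoints were estimated by linear interpolation. Abbreviation: GI50, concentration required for 50% inhibition of growth. TGI: concentration producing complete growth inhibition.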

Common to all, as to assay: NCI tumour cell line growth inhibition, 48 h
Test [1] relates to UO-31 renal.
In test [2] the test system is DMS 273 small cell lung.
Test [3] has as its system P388/ADR leukemia.
For test [4], the system named is DLD-1 colon.
The test system of test [5] is A498 renal.
The test system of test [6] is HOP-62 NSCLC.
The subject of test [7] is A549 NSCLC.
The subject of test [8] is DMS 114 small cell lung.
Test [9] relates to SNB-78 CNS.
Test [10] has as its system MDA-N.
The subject of test [11] is ACHN renal.
Test [12] deals with SR leukemia.
Test [13] has as its system BT-549 breast.

Turning to `COc1cc2c(cc1O)N=C[C@@H]1CCC(O)N1C2=O` (mixture of isomers), the TGI in test [1] turned out to be 2.79 µM; in [2], 19.6 µM; in test [3] it was 5.15 µM; in test [4], 13.5 µM; in [5], 0.928 µM; in test [6], 2.91 µM. The TGI in [7] amounted to 71.6 µM; in test [8] it was 1.41 µM; in test [9], 46.3 µM.
`O=C1NC(=O)C2(CCc3ccc(N(CCCl)CCCl)cc32)N1` (stereo not drawn): the TGI in test [1] was 48 µM; in test [2], 16 µM; in test [3], 36.7 µM; in [4], above 81.8 µM; in test [5], 33.1 µM; in test [6] it was 35.5 µM. The TGI is above 65 µM in test [7], 26 µM in test [8] and above 100 µM in test [9].
For the molecule `COc1ccc2oc3c(ccc[n+]3C)c(=O)c2c1`, the TGI in test [1], in test [5], in test [6], in test [7], in test [10] and in test [11] was above 100 µM each time. This molecule displayed a TGI in test [12] above 100 µM.
In the case of `COc1ccc(-c2c(C#N)cnc(N)c2-c2nc3cc(C)c(C)cc3[nH]2)cc1`, the GI50 in test [13] is 30.6 µM; in test [5], 10.7 µM; in test [6], 3.65 µM; in test [7] it was 6.54 µM; in test [11], 39.8 µM; in [12], 5.64 µM. The TGI is above 100 µM in [13]; 63.6 µM in test [5]; 14.4 µM in test [6]; 72.4 µM in [7]; above 100 µM in test [11]; above 100 µM in test [12].
Consider `CCc1ncc(C(C)(O)c2ccccc2)n1Cc1ccccc1` (stereo not drawn), for which the TGI in [1] is above 100 µM; in test [13] it was above 100 µM; in test [7] it was above 100 µM; in [11], above 100 µM; in [12], 44.1 µM.
On to `C/C=C1/C(=O)O[C@]23C=C[C@@H]4C(C(=O)OC)=CO[C@H](O[C@@H]12)[C@@H]43`, for which the TGI in test [1] was found to be 6.98 µM; in test [2], 39.9 µM; in [3], 2.41 µM; in test [4] it was 2.94 µM; in test [5], 1.58 µM; in test [6], 22 µM. Further, the TGI in test [7] was 11.1 µM; in test [8], 2.82 µM; in test [9] it was 23.6 µM.
Take `CC(=O)O[C@@H]1CN(S(=O)(=O)c2ccc(C)cc2)C[C@@H]1C1CCCCC1`: the TGI in [1] was above 100 µM; in [5], 55.1 µM; in [6], 66.7 µM; in test [10] it was 54.7 µM; in test [11], above 100 µM; in test [12], above 100 µM.
On to `COc1ccc(/C=C/C(=O)/C=C(/C=C/c2ccc(OC)c(OC)c2OC)OB(F)F)c(OC)c1OC`, for which the GI50 is 0.96 µM in test [1]; 3.35 µM in test [5]; 3.89 µM in test [6]; 3.44 µM in test [7]; 0.278 µM in test [12]. In addition, the TGI in test [1] is 3.65 µM; in [5] it was 10.2 µM; in test [6], above 100 µM; in test [7], above 100 µM; in [12], above 100 µM.
Turning to `CC(CNc1nc(Nc2ccc(Cl)c(Cl)c2)nc(C(Cl)(Cl)Cl)n1)N(C)C` (stereo not drawn), in [11], the GI50 was 1.56 µM and the TGI came to 2.94 µM.
`Nc1ccc2c(c1)S(=O)(=O)c1cc(N)ccc1-2`: the TGI in test [1], in test [13], in [5], in [6], in test [7] and in test [10] was above 100 µM in each case. The molecule also yielded a TGI in test [11] above 100 µM.
In the case of `O=c1ccc2nc3ccc(O)cc3oc-2c1`, the TGI in [1] is above 100 µM; in test [13], 44 µM; in [5], above 100 µM; in test [6] it was above 100 µM; in test [7], above 100 µM; in [10], 3.43 µM. The molecule also registered a TGI in test [11] above 100 µM.
Regarding `CC(=O)Nc1nc(C)c(-c2cc3c(c(S(C)(=O)=O)c2)C(=O)N([C@@H](C)C2CC2)C3)s1`, the GI50 was 24.8 µM in test [1]; 29.1 µM in [13]; 19 µM in test [5]; 28.2 µM in test [6]; 28 µM in test [7]; 28.3 µM in [11]. Also, in test [12], the GI50 was 26.8 µM. Further, the TGI in test [1] was above 100 µM; in [13] it was above 100 µM; in test [5], 53.5 µM; in [6], above 100 µM; in test [7], above 100 µM; in test [11], above 100 µM. This molecule displayed a TGI in [12] above 100 µM.
For `Cc1ccc(C(=O)N/N=C(\N=Nc2ccccc2)c2ccc(N(CCC#N)CCC#N)cc2C)cc1`, the TGI in test [1] was above 100 µM; in [5], above 100 µM; in [6], 52.9 µM; in test [7], above 100 µM; in test [11], above 100 µM; in test [12], above 100 µM.
